Here are results for 4 molecules from patent publication US12018006B2, “Method of producing EPD and analogues thereof” (priority 2017, dated 2024).

Data set [1] has as its system ovarian cancer cell line JC. The data set can be described thus: In vitro cytotoxic activity, Presto blue assay, ovarian cancer cell line JC. Type of data set: cell-based. As to the method:
(§1) The cytotoxic activity of the compounds was tested using methods as described earlier (van Haaften et al. Journal of Experimental & Clinical Cancer Research (2015) 34:38). In short, 3×10^4 cells of the ovarian cancer cell line JC (Van Haaften-Day et al. Cancer Res. 1983) were seeded in 24-well plates (Costar, Denmark) in DMEM/F12 medium (Invitrogen) containing 10% of Fetal Calf Serum (FCS, Sigma), 50 U penicillin and 50 μg/mL streptomycin (Invitrogen). The cells were incubated at 37° C. in a 9% CO2 incubator with 95% humidity. After 24 hours, solutions 1-6 were added to the cell cultures.
(§2) Cytotoxic activity of each of the compounds was determined after 72 hours in a standard Presto blue assay (see Van Haaften et al. J Exp Clin Cancer Res. 2015 34(1): 38 for details on the method). Each compound's solution as described above was diluted 100, 200 and 400 times respectively.

A further data set relates to normal fibroblasts. The data set can be described thus: Effect of synthetic EPD on growth of normal fibroblasts. Type of data set: cell-based. The settings on record: FIG. 1B. The method, then: (§3) Further, the effect of synthetic EPD (1-3 μg/mL) was studied on normal fibroblasts and compared with the effect on a cervical cancer cell line Siha (FIG. 1B). […] At a concentration of 1 μg/mL, fibroblast growth was unaffected, whereas cancer cell growth was reduced by almost 20%. At a concentration of […], fibroblast growth was reduced by almost 20%, whereas cancer cell growth was reduced by more than 80%, and at a concentration of 3 μg/mL, fibroblast growth was reduced by 35%, whereas cancer cell growth was reduced by almost 97%.

Data set [2] deals with ovarian cancer cell line A2780AD. The data set can be described thus: Growth of multi-drug resistant ovarian cancer cell line A2780AD after 72 hrs. The class given is cell-based, human. As to conditions: for growth of the cell line, % of the control value: 72 hrs, control (medium) = 100%. The method, then:
as §1, §2
Also the effect of synthetic EPD was tested on an ovarian cancer cell line A2780AD, ATCC using methods as described above, whereby the experiment was ended after 72 hrs. Cell line A2780AD, a multi-drug resistant human ovarian cancer cell line, is resistant to paclitaxel. It was shown that at 1, 1.5 and 2 μg/mL of synthetic EPD, the growth of the cell line after 72 hrs was reduced to 40%, 13% and 8% of the control value (100%, medium), respectively.

Data set [3] concerns cervical cancer cell line Siha. As to the kind of experiment: Effect of synthetic EPD on growth of cervical cancer cell line Siha. The class given is cell-based. As to conditions: for cancer cell growth reduced by: Siha, FIG. 1B. The method, then: as §3
The test system of a further data set is normal cells. As to conditions: cited from earlier work.
For the next data set, the system named is ovarian cancer. The settings on record: cited from earlier work.

Structures are written as SMILES.

With `C=C1C(=O)O[C@H]2CC3=CCCC[C@]3(C)C[C@@H]12` (relative stereo) [racemic mixture of the (mono) methyl analogue, (rel3aS,4aR,9aS)-4α-methyl-3-methylene-3a,4,4a,5,6,7,9,9a-octahydronaphtho[2,3-b]furan-2(3H)-one], the cytotoxic activity result in data set [1] (JC cells, 72 hours, solutions diluted 100, 200 and 400 times, FIG. 1A, compared with natural EPD) is on record as “demonstrates cytotoxic activity”.
Consider `C=C1C(=O)O[C@@H]2CC3=CCC[C@H](C)[C@@]3(C)C[C@H]12` (single isomer, unassigned) [synthetic EPD, eremophila-1(10)-11(13)-dien-12,8β-olide], for which the fibroblast growth result in the data set with normal fibroblasts (synthetic EPD 1 μg/mL) is on record as “unaffected”. In addition, the entries for the “fibroblast growth reduced by” value with normal fibroblasts (synthetic EPD 2 μg/mL) and with normal fibroblasts (synthetic EPD 3 μg/mL) were about 20% and 35%, respectively. Further, the entries for the “growth of the cell line, % of the control value” in data set [2] (1 μg/mL), in data set [2] (1.5 μg/mL) and in data set [2] (2 μg/mL) were 40%, 13% and 8%, respectively. Besides, the “dose-dependent effect on cancer cells compared with fibroblasts” value in data set [3] (Siha vs normal fibroblasts, 1-3 μg/mL) is “much higher on cancer cells than on fibroblasts”. Further, the “cancer cell growth reduced by” value in data set [3] (synthetic EPD 1 μg/mL) is reported as about 20%; in data set [3] (synthetic EPD 3 μg/mL), about 97%; in data set [3] (synthetic EPD 2 g/mL) it was “more than 80%”. For the same molecule, the “inhibition of JC cells compared with paclitaxel” value in data set [1] (JC as control cell line, FIG. 1C) is recorded as “at least as effective as paclitaxel”.
For the molecule `C=C1C(=O)O[C@@H]2CC3=CCC[C@H](C)[C@@]3(C)C[C@H]12` [EPD, eremophila-1(10)-11(13)-dien-12,8β-olide], in the data set on normal cells, the “cytotoxic effects towards normal cells” value was “not towards normal cells”. Besides, in the data set on ovarian cancer, the “cytotoxic effects towards ovarian cancer” value was “potent cytotoxic effects”.
For the molecule `CC(=O)O[C@H]1C(=O)[C@@]2(C)[C@H]([C@H](OC(=O)c3ccccc3)[C@]3(O)C[C@H](OC(=O)[C@H](O)[C@@H](NC(=O)c4ccccc4)c4ccccc4)C(C)=C1C3(C)C)[C@]1(OC(C)=O)CO[C@@H]1C[C@@H]2O` [paclitaxel, reference compound], in data set [2] (0.375 μg/mL), the “resistance of cell line A2780AD to the drug” value is given as “full resistance”.
